Measured values taken from EP0356192A2, “Prevention & treatment of liver abscesses in animals” (SMITHKLINE BEECHAM CORPORATION, priority 1988, dated 1990).
In brackets after ≈: the same amount, converted by molar mass. Several values for one entry are separate records, joined by “and”; a condition that tells them apart may be missing. Equal values may be shown once. Read-outs that look alike come from different tables or passages of the source.

Tests used:
[1] = tested on: Fusobacterium necrophorum ATCC 25286; assay: MIC by agar dilution method (Wilkins-Chalgren Agar); type: cell-based
Procedure: (§1) In this example, microbiological studies were initiated with Virginiamycin and other antibiotics so as to determine their potency in controlling liver abscesses. As Fusobacterium necrophorum has been associated with bovine liver abscesses in cattle, it was determined that microbiological studies involving this bacterium would be undertaken with representative examples of antibiotics including Virginiamycin.
(§2) The MIC's for Fusobacterium necrophorum was done by the agar dilution method. Two-fold serial dilutions of each compound was incorporated into Wilkins-Chalgren Agar plates. Each Fusobacterium necrophorum was propagated in Peptone-Yeast-Glucose broth and inoculated onto the plates with a multipoint inoculating device. The plates were incubated at 37°C in an atmosphere of 10% H₂, 5% CO₂ and 85% N₂, for 40 hours.

[2] = tested on: Fusobacterium necrophorum ATCC 27852; assay: as above; type: cell-based
Procedure: as §1, §2

[3] = tested on: Fusobacterium necrophorum; assay: MIC of Virginiamycin and ionophores alone and combined at fixed ratios, two-fold serial dilution of a stock solution; type: cell-based; conditions: for MIC Alone: antibiotic alone; for MIC: Fusobacterium necrophorum, read-out: MIC Alone
Procedure: In this example, microbiological studies were initiated with combinations of antibiotics from the Virginiamycin family of antibiotics and ionophore family of antibiotics so as to determine their potency in controlling liver abscesses. As Fusobacterium necrophorum has been associated with bovine liver abscess in cattle, it was determined that microbiological studies involving this bacterium would be undertaken. Since the liver abscess etiology is poorly defined, it is difficult to precisely extrapolate these studies to animal disease. […]
Virginiamycin was combined with an antibiotic from the ionophore family in a ratio expected in medicated feeds, eg. Salinomycin at 20 g/Ton and Virginamycin at 15 g/Ton have a ratio of 1.3:1. For the microbilogical studies, a stock solution was made up to contain Salinomycin and Virginiamycin in the same ratio of 1.3:1. The stock solution was serially diluted two fold. The dilutions were incubated with F. necr. The end point was the lowest concentrations antibiotics which inhibited the growth of F. necr., or MIC for minimal inhibitory concentration, eg. the MIC of Salinomycin was 5 µg/ml while that of Virginiamycin was 1 µg/ml.

[4] = tested on: Fusobacterium necrophorum Colorado Strain; assay: MIC by agar dilution method (Wilkins-Chalgren Agar); type: cell-based
Procedure: as §1, §2

liver abscess = assay: Incidence of liver abscess at slaughter in cattle fed a ration supplemented with Virginiamycin; type: in vivo; conditions: for No. of Animals With Liver Abscess: ad libitum, approximately 120 days, Total Animals 197 (control 26 of 199); for No. of Animals Without Liver Abscess: Total Animals 197
Procedure: A cattle ration was prepared using the following formula: […]
The ration was supplemented with varying proportions of Virginiamycin and fed, ad libitum, to approximately 200 cattle weighing between 650 lbs. and 850 lbs. The cattle were processed according to standard procedures for the facility, individually weighed and identified. The treatments were continued until the cattle reached an approximate weight of 1100 lbs. (approximately 120 days).
Virginiamycin was added to the ration in the following amounts: Table 2
At slaughter, livers were identified with the individual animal number and scored for liver abscess after examination in the manner required by USDA. Livers were palpated and suspicious area were excised and examined for the presence of liver abscesses.

[5] = tested on: Fusobacterium necrophorum (the two ATCC strains); assay: MIC of factors M and S of virginiamycin, one experiment, two ATCC strains taken together; type: cell-based; conditions: geometric mean for the two ATCC strains
Procedure: as §2
In the one experiment in which factors M and S of virginiamycin were tested, the MICs were 0.35 (geometric mean for the two ATCC strains) and greater than 32 µg/ml, respectively. Virginiamycin contains 75% of Factor M and 25% of Factor S.

[6] = Fusobacterium necrophorum, ATCC25286, 40 h
[7] = Fusobacterium necrophorum, ATCC27852, 40 h
[8] = Fasalocid : Virginiamycin, ratio 2:1
[9] = Fasalocid : Virginiamycin, ratio 3:1
[10] = Fusobacterium necrophorum, 40 h
[11] = strain ATCC 25286, 37°C, anaerobic atmosphere, 40 hours, * = geometric mean of more than one determination
[12] = strain ATCC 27852, 37°C, anaerobic atmosphere, 40 hours, * = geometric mean of more than one determination
[13] = Ferrensinmycin : Virginiamycin, ratio 1.3:1

For `CN(C)[C@@H]1C(O)=C(C(N)=O)C(=O)[C@@]2(O)C(O)=C3C(=O)c4c(O)ccc(Cl)c4[C@@](C)(O)[C@H]3C[C@@H]12` [Chlortetracycline], which MIC [1, 6] is on record?
The MIC was 0.02 mg/L (≈ 0.0418 µM).

What about the MIC [2, 7] of the same compound?
The MIC was 0.12 mg/L (≈ 0.251 µM).

`CC[C@H]1OC(=O)[C@H](C)[C@@H](O[C@H]2C[C@@](C)(OC)[C@@H](O)[C@H](C)O2)[C@H](C)[C@@H](O[C@@H]2O[C@H](C)C[C@H](N(C)C)[C@H]2O)[C@](C)(O)C[C@@H](C)C(=O)[C@H](C)[C@@H](O)[C@]1(C)O` [Erythromycin] was tested. Which MIC [1, 6] did it give?
Its MIC is 8 mg/L (≈ 10.9 µM).

For `CC[C@@H](C(=O)[C@@H](C)[C@@H](O)[C@H](C)CCc1ccc(C)c(O)c1C(=O)O)[C@H]1O[C@](CC)([C@H]2CC[C@](O)(CC)[C@H](C)O2)C[C@@H]1C` [Fasalocid], which “MIC Combination” value [3, 8] is on record?
Its value is 1 mg/L.

What about the “MIC Combination” value [3, 9] of the same compound?
The value was 3 mg/L.

And the “MIC Alone” value [3]?
The value was 7 mg/L and 10 mg/L.

Which results are given for `CC[C@@H](C(=O)[C@@H](C)[C@@H](O)[C@H](C)CCc1ccc(C)c(O)c1C(=O)O)[C@H]1O[C@](CC)([C@H]2CC[C@](O)(CC)[C@H](C)O2)C[C@@H]1C` [Lasalocid]?
MIC [1, 6]: 9.1 mg/L (≈ 15.4 µM); MIC [2, 7]: 12 mg/L (≈ 20.3 µM); MIC [4, 10]: 8.5 mg/L (≈ 14.4 µM)

For `CC[C@@]1([C@@H]2O[C@@H]([C@H]3O[C@@](O)(CO)[C@H](C)C[C@@H]3C)C[C@@H]2C)CC[C@H]([C@]2(C)CC[C@]3(C[C@H](O)[C@@H](C)[C@@H]([C@@H](C)[C@@H](OC)[C@H](C)C(=O)O)O3)O2)O1` [Monensin], which MIC [3] is on record?
Its MIC is 4 mg/L.

What about the MIC [1, 6] of the same compound?
Its MIC is 6.4 mg/L (≈ 9.54 µM).

And the MIC [2, 7]?
Its MIC is 3 mg/L (≈ 4.47 µM).

What about the MIC [4, 10] of the same compound?
The MIC was 4.2 mg/L (≈ 6.26 µM).

Which MIC [1, 6] does the source give for `CN(C)[C@@H]1C(=O)C(C(N)=O)=C(O)[C@@]2(O)C(=O)C3=C(O)c4c(O)cccc4[C@@](C)(O)[C@H]3[C@H](O)[C@@H]12` [Oxytetracyline, Oxytetracycline] here?
The MIC was 0.03 mg/L (≈ 0.0652 µM).

And the MIC [2, 7]?
Its MIC is 0.25 mg/L (≈ 0.543 µM).

With `CC[C@@H](C(=O)[C@@H](C)[C@@H](O)[C@H](C)[C@@H]1O[C@@H]([C@@H](CC)C(=O)O)CC[C@@H]1C)[C@H]1O[C@]2(C=C[C@@H](O)[C@]3(CC[C@@](C)([C@H]4CC[C@](O)(CC)[C@H](C)O4)O3)O2)[C@H](C)C[C@@H]1C` [Salinomycin] as the compound, how does the “decrease in the MIC on combination” value [3] read?
Its value is 250 fold.

What about the MIC [3] of the same compound?
Its MIC is 5 mg/L.

What about the MIC [1, 6] of the same compound?
Its MIC is 3.6 mg/L (≈ 4.79 µM).

And the MIC [2, 7]?
Its MIC is 4 mg/L (≈ 5.33 µM).

What about the MIC [4, 10] of the same compound?
Its MIC is 5.7 mg/L (≈ 7.59 µM).

For `CC[C@H]1OC(=O)C[C@@H](O)[C@H](C)[C@@H](O[C@@H]2O[C@H](C)[C@@H](O[C@H]3C[C@@](C)(O)[C@@H](O)[C@H](C)O3)[C@H](N(C)C)[C@H]2O)[C@@H](CC=O)C[C@@H](C)C(=O)/C=C/C(C)=C/[C@@H]1CO[C@@H]1O[C@H](C)[C@@H](O)[C@@H](OC)[C@H]1OC` [Tylosin], which MIC [1, 6] is on record?
The MIC was 0.8 mg/L (≈ 0.873 µM).

What about the MIC [2, 7] of the same compound?
The MIC was 1.4 mg/L (≈ 1.53 µM).

What about the MIC [4, 10] of the same compound?
Its MIC is 1 mg/L (≈ 1.09 µM).

What does the source list for Avoparcin?
MIC [1, 11]: 32.0 mg/L; MIC [2, 12]: 64.0 mg/L

Which “MIC Combination” value [3, 13] does the source give for Ferrensinmycin here?
The value was 0.6 mg/L.

What about the “MIC Alone” value [3] of the same compound?
Its value is 0.5 mg/L.

Flavomycin was tested. Which MIC [1, 11] did it give?
The MIC was 0.25 mg/L.

What about the MIC [2, 12] of the same compound?
Its MIC is 0.12 mg/L.

Which results are given for Virginiamycin?
No. of Animals With Liver Abscess (liver abscess; Vm 9.1 grams/ton in ration): 16; No. of Animals Without Liver Abscess (liver abscess; Vm 9.1 grams/ton in ration): 181; No. of Animals With Liver Abscess (liver abscess; Vm 22.7 grams/ton in ration): 12; No. of Animals Without Liver Abscess (liver abscess; Vm 22.7 grams/ton in ration): 185; No. of Animals With Liver Abscess (liver abscess; Vm 45.5 grams/ton in ration): 6; No. of Animals Without Liver Abscess (liver abscess; Vm 45.5 grams/ton in ration): 191; effect on the incidence of liver abscess (liver abscess; all dose groups vs control, Chi-Square Goodness of Fit): obvious beneficial effect; MIC Combination [3, 8]: 1 mg/L; MIC Combination [3, 9]: 0.9 mg/L; MIC Combination [3, 13]: 0.5 mg/L; MIC Combination ([3]; Monensin : Virginiamycin, ratio 0.7:1): 0.5 mg/L; MIC Combination ([3]; Monensin : Virginiamycin, ratio 2:1): 0.01 mg/L; MIC Combination ([3]; Monensin : Virginiamycin, ratio 3:1): 0.7 mg/L; MIC Combination ([3]; Salinomycin : Virginiamycin, ratio 1:1): 0.7 mg/L; MIC Combination ([3]; Salinomycin : Virginiamycin, ratio 1.3:1): 0.02 mg/L; decrease in the MIC on combination ([3]; Salinomycin : Virginiamycin, ratio 1.3:1, vs alone): 50 fold; MIC Alone [3]: 0.7 mg/L; MIC [1, 11]: 0.9* µg/ml; effectiveness compared with Tylosin ([2]; strain ATCC 27852, from MICs): twice as effective as Tylosin; MIC [2, 12]: 1.0* µg/ml; MIC ([4]; Colorado Strain, 37°C, anaerobic atmosphere, 40 hours, * = geometric mean of more than one determination): 1.0* µg/ml

With Virginiamycin factor M as the compound, how does the MIC [5] read?
Its MIC is 0.35 mg/L.

What about the MIC [1, 11] of the same compound?
Its MIC is 0.5 mg/L.

What about the MIC [2, 12] of the same compound?
Its MIC is 0.25 mg/L.

For Zinc bacitracin, which MIC [2, 12] is on record?
Its MIC is 9.2 mg/L.
